Experimental findings from US10085449B2, “N-[1-((6-chloropyridin-3-yl)methyl)pyridin-2(1H)-ylidene]-2,2,2- trifluoroacetamide for control of agricultural/horticultural pests” (priority 2010, dated 2018) are described below.

Assay type in all cases: in vivo
For series [1], the system named is small brown planthopper. Nature of the series: whole plant or invertebrate. The conditions noted are these: Laodelphax striatellus, 72 h; for pest or weed control at 0.01 mg/pot: 0.01 mg/pot (Table 13); for pest or weed control at 0.05 mg/pot: 0.05 mg/pot (Table 13). As to the method:
(§1) Rice seedlings grown in pots were subjected to soil drenching treatment with solutions of the inventive compounds at a predetermined concentration prepared to 10% acetone/water. Three days following treatment, ten second-instar small brown planthopper larvae were released onto each seedling. The treated seedlings and larvae were then held in an incubation chamber at 25° C. (16-hour period of light, 8-hour dark period). Three days after released, the numbers of live and dead insects were counted, and the mortality was calculated from the following formula. The test was carried out as two replications. Mortality (%)=[number of dead insects/(number of live insects+number of dead insects)]×100

For series [2], the system named is brown rice planthopper having a low susceptibility to insecticides. Details: key to Brown rice planthopper, Kumamoto low susceptibility (rice soil drenching), effect: mortality %, dead/(live+dead) ×100. The conditions noted are these: rice soil drenching, 0.05 mg/pot. As to the method: as §1, with “days after” for “days following”, “second-instar” for “second-instar small”, “brown rice” for “brown”, “larvae having a low susceptibility to insecticides” for “larvae”, “The” for “The treated”, “and insects” for “and larvae”
The pests used in this test were insects that had been raised indoors for successive generations over a long period of time (susceptible line), and insects that had been raised indoors for successive generations after being collected (I) in 2007 within Kumamoto Prefecture and (II) in 2005 within Fukuoka Prefecture (field-collected lines).

The test system of a further series is cotton aphid. Nature of the series: whole plant or invertebrate. The following applies: Aphis gossypii, foliar. As to the method:
(§2) Leaf discs 2.0 cm in diameter were cut from cucumber plants grown in pots, and these were sprayed with solutions of the inventive compounds at a predetermined concentration prepared to 50% acetone/water (containing 0.05% Tween 20). The treated leaf discs were air dried, following which first-instar larvae were released onto the discs. The leaf discs and larvae were then held in an incubation chamber at 25° C. (16-hour period of light, 8-hour dark period). Three days after released, the numbers of live and dead insects were counted, and the mortality was calculated from the following formula. This was a two-replication test. Mortality (%)=[number of dead insects/(number of live insects+number of dead insects)]×100

A further series has as its system rice leaf bug. Nature of the series: whole plant or invertebrate. The conditions noted are these: foliar, 72 h. On the procedure: The treated seedlings were air-dried, then each was placed in a glass cylinder and two second-instar rice leaf bug larvae were released within the same glass cylinder. Following release of the insects, the tube was capped and held in an incubation chamber at 25° C. (16-hour period of light, 8-hour dark period). […] Three days after released, the numbers of live and dead insects were counted, and the mortality was calculated from the following formula. Mortality (%)=[number of dead insects/(number of live insects+number of dead insects)]×100

The next series has as its system diamondback moth. Nature of the series: whole plant or invertebrate. The following applies: Plutella xylostella, foliar. On the procedure: as §2, with “5.0” for “2.0”, “cabbage” for “cucumber”, “second-instar” for “first-instar”
A further series concerns common cutworm. The experiment in a line: whole plant or invertebrate. The following applies: for Insecticidal effects (mortality), common cutworm third-instar larvae: foliar application, 500 ppm. On the procedure:
as §2, with “5.0” for “2.0”, “cabbage” for “cucumber”, “third-instar” for “first-instar”

For a further series, the system named is western flower thrips. Nature of the series: whole plant or invertebrate. The conditions noted are these: Frankliniella occidentalis, foliar. On the procedure:
as §2, with “2.8” for “2.0”, “bean” for “cucumber”

The subject of series [3] is small brown planthopper. The experiment in a line: whole plant or invertebrate. The following applies: Laodelphax striatellus, in Triticum aestivum, 96 h. As to the method:
as §1, with “Wheat seedling roots 48 hours after sowing” for “Rice seedlings grown in pots”, “treated” for “subjected to soil drenching treatment”, “After allowing the roots to absorb the chemical for 72 hours,” for “Three days following treatment,”, “Four” for “Three”

Setting [4] is: rice soil drenching, read-out: Small brown planthopper (rice soil drenching), effect.
Setting [5] is: read-out: Insecticidal effects (mortality), diamondback moth second-instar larvae.
Setting [6] is: read-out: Insecticidal effects (mortality), cotton aphid first-instar larvae.
Where [7] appears, read: read-out: Insecticidal effects (mortality), western flower thrips first-instar larvae.
The mark [8] stands for this setting: read-out: Insecticidal effects (mortality), small brown planthopper second-instar larvae.
Where [9] appears, read: soil, read-out: Insecticidal effects (mortality), small brown planthopper second-instar larvae.

Where two headings read alike, the source gives them in different places. A value given as a limit tells only on which side of the number the result lay.

On to `O=C(/N=C1\NCCN1Cc1ccc(Cl)nc1)C(F)(F)F` [Comparative Example 7, N-[1-((6-chloropyridin-3-yl)methyl)imidazolidin-2-ylidene]-2,2,2-trifluoroacetamide, reference compound], for which, in the series with small brown planthopper [1] (setting [4]), the pest or weed control at 0.01 mg/pot was 5% and the pest or weed control at 0.05 mg/pot came to 63%. The “Brown rice planthopper, Kumamoto low susceptibility (rice soil drenching), effect” value in series [2] was 20.

As a reminder, the mortality is the share of the test organisms that died. For `O=C(CCl)N=c1ccccn1Cc1ccc(Cl)nc1` [Compound 236, 2-chloro-N-[1-((6-chloropyridin-3-yl)methyl)pyridin-2(1H)-ylidene]acetamide], in the series with cotton aphid (in Cucumis sativus, 72 h), the mortality at 20 ppm is ≥ 80% and the mortality at 100 ppm is ≥ 80%. In addition, the mortality at 50 ppm with rice leaf bug is ≥ 80%.

For `O=C(N=c1ccccn1Cc1ccc(Cl)nc1)C(F)(F)Cl` [Compound 239, 2-chloro-N-[1-((6-chloropyridin-3-yl)methyl)pyridin-2(1H)-ylidene]-2,2-difluoroacetamide], in the series on diamondback moth (setting [5]), the mortality at 20 ppm is 100%, the mortality at 100 ppm is 100% and the mortality at 500 ppm is 100%. In the series with diamondback moth (in Brassica oleracea, 72 h), the mortality at 100 ppm is ≥ 80% and the mortality at 500 ppm was ≥ 80%. Besides, the “Insecticidal effects (mortality), common cutworm third-instar larvae” value (shortened to “Insecticidal effects (mortality)”) with common cutworm was 90. For the same compound, the mortality at 500 ppm in the series on common cutworm (foliar, 72 h) was ≥ 80%. Moreover, in the series with cotton aphid (setting [6]), the mortality at 20 ppm is 100%, the mortality at 100 ppm was 100% and the mortality at 500 ppm amounted to 100%. Moreover, in the series with cotton aphid (in Cucumis sativus, 72 h), the mortality at 20 ppm is ≥ 80%, the mortality at 100 ppm was ≥ 80% and the mortality at 500 ppm was ≥ 80%. Also, the mortality at 500 ppm in the series on western flower thrips (setting [7]) was determined as 40%. In the series on rice leaf bug, the mortality at 50 ppm is ≥ 80%. The mortality at 20 µg/seedling in the series on small brown planthopper [3] is ≥ 80%. In the series with small brown planthopper [3] (setting [8]), the mortality at 0.25 mg/seedling is 100%, the mortality at 0.5 mg/seedling stood at 100%, the mortality at 2 mg/seedling amounted to 100% and the mortality at 20 mg/seedling was 100%. In addition, the pest or weed control at 0.005 mg/pot in the series on small brown planthopper [1] (rice soil drenching, 0.005 mg/pot (Table 13), read-out: Small brown planthopper (rice soil drenching), effect) is 30%. Moreover, in the series on small brown planthopper [1] (setting [4]), the pest or weed control at 0.01 mg/pot came out at 80% and the pest or weed control at 0.05 mg/pot was 100%. The mortality at 0.05 mg/seedling in the series on small brown planthopper [1] (soil) is ≥ 80%. In the series on small brown planthopper [1] (setting [9]), the mortality at 0.005 mg/pot was 30%, the mortality at 0.01 mg/pot turned out to be 80% and the mortality at 0.05 mg/pot came out at 100%.

As to `O=C(N=c1ccccn1Cc1ccc(Cl)nc1)C(F)(F)C(F)(F)F` [Compound 242, N-[1-((6-chloropyridin-3-yl)methyl)pyridin-2(1H)-ylidene]-2,2,3,3,3-pentafluoropropanamide], in the series on diamondback moth (setting [5]), the mortality at 100 ppm was 100% and the mortality at 500 ppm was 100%. In the series on diamondback moth (in Brassica oleracea, 72 h), the mortality at 100 ppm was ≥ 80% and the mortality at 500 ppm is ≥ 80%. In the series on common cutworm, the “Insecticidal effects (mortality)” value is reported as 60. Moreover, in the series on cotton aphid (setting [6]), the mortality at 1.25 ppm is 35%, the mortality at 5 ppm is 80%, the mortality at 20 ppm worked out at 100% and the mortality at 100 ppm was determined as 100%. In the series on cotton aphid (in Cucumis sativus, 72 h), the mortality at 20 ppm is ≥ 80% and the mortality at 100 ppm is ≥ 80%. Besides, the mortality at 500 ppm with western flower thrips (72 h) was ≥ 80%. Moreover, in the series with western flower thrips (setting [7]), the mortality at 100 ppm is 76% and the mortality at 500 ppm amounted to 100%. The mortality at 50 ppm in the series on rice leaf bug was ≥ 80%. In the series on small brown planthopper [3] (setting [8]), the mortality at 0.5 mg/seedling was 100%, the mortality at 2 mg/seedling turned out to be 100% and the mortality at 20 mg/seedling stood at 100%. In addition, the pest or weed control at 0.05 mg/pot in the series on small brown planthopper [1] (setting [4]) amounted to 100%. Besides, in the series with small brown planthopper [1] (soil), the mortality at 0.05 mg/seedling was ≥ 80%. Also, the mortality at 0.05 mg/pot in the series with small brown planthopper [1] (setting [9]) is 100%.

On to `O=C(N=c1ccccn1Cc1cnc(Cl)nc1)C(F)(F)F` [Compound 243, N-[1-((2-chloropyrimidin-5-yl)methyl)pyridin-2(1H)-ylidene]-2,2,2-trifluoroacetamide], for which, in the series on diamondback moth (setting [5]), the mortality at 100 ppm stood at 100% and the mortality at 500 ppm came out at 100%. For the same compound, in the series on diamondback moth (in Brassica oleracea, 72 h), the mortality at 100 ppm was ≥ 80% and the mortality at 500 ppm was ≥ 80%. In the series with common cutworm, the “Insecticidal effects (mortality)” value was determined as 10. Moreover, in the series on cotton aphid (setting [6]), the mortality at 1.25 ppm was 80%, the mortality at 5 ppm amounted to 100%, the mortality at 100 ppm is 100% and the mortality at 500 ppm came out at 100%. Besides, in the series with cotton aphid (in Cucumis sativus, 72 h), the mortality at 20 ppm was ≥ 80%, the mortality at 100 ppm is ≥ 80% and the mortality at 500 ppm was ≥ 80%. In addition, the mortality at 500 ppm in the series with western flower thrips (72 h) was ≥ 80%. Also, the mortality at 500 ppm in the series with western flower thrips (setting [7]) was determined as 100%. Further, in the series with rice leaf bug, the mortality at 50 ppm is ≥ 80%. For the same compound, in the series with small brown planthopper [3] (setting [8]), the mortality at 0.5 mg/seedling was 100%, the mortality at 2 mg/seedling was 100% and the mortality at 20 mg/seedling turned out to be 100%. In the series with small brown planthopper [1] (setting [4]), the pest or weed control at 0.05 mg/pot was found to be 100%. Besides, the mortality at 0.05 mg/seedling with small brown planthopper [1] (soil) is ≥ 80%. Besides, in the series on small brown planthopper [1] (setting [9]), the mortality at 0.05 mg/pot is 100%.
